The nature of this experiment: Change in intraocular pressure (IOP) after administration of compound. In kind it is in vivo.

The structures appear in SMILES notation. Where a name gives a salt, the structure may show the parent alone.

On to `CCOc1cccc(C2CN3CCC2CC3)n1` (stereo not shown) [Description A, 3-[2-(6-Ethoxypyridin)yl]-1-azabicyclo[2.2.2]octane Hydrogen Oxalate], for which the “Change in IOP (Maximum mmHg change in intraocular pressure)” value (from here on “Change in IOP”) (Concentration 0.05%) is listed as -3.0 mmHg.

Regarding `Clc1cccc(C2CN3CCC2CC3)n1` (stereo not shown) [Description D, 3-[2-(6-Chloropyridin)yl]-1-azabicyclo[2.2.2]octane Hydrogen Oxalate], the “Change in IOP” value (Concentration 0.5%) is reported as -3.0 mmHg.

As for `COc1cccc(C2CN3CCC2CC3)n1` (stereo not shown) [Description C, 3-[2-6-Methoxypyridin)yl]-1-azabicyclo[2.2.2]octane Dihydrochloride], the “Change in IOP” value (Concentration 0.05%) is given as -3.0 mmHg.

For `COc1cccc(C2CN3CCC2C3)n1` (stereo not drawn) [Description B, Endo-3-[2-(6-methoxypyridin)yl]-1-azabicyclo[2.2.1]heptane Hydrogen Oxalate], the “Change in IOP” value (Concentration 0.05%) is reported as -4.5 mmHg.

These data come from patent publication EP0492902A1, “Substituted pyridine derivatives for use in the treatment of glaucoma” (MERCK SHARP & DOHME LTD., priority 1990, dated 1992).
